ChEMBL document CHEMBL4043153, “Lead selection of antiparasitic compounds from a focused library of benzenesulfonyl derivatives of heterocycles” (Bioorg Med Chem Lett, 2017)
Active and inactive are the calls of the source. The calls are words filed in the database; no cut-off is given here.

Legend:
[1] = tested on: Leishmania donovani; assay: Antiparasitic activity against Leishmania donovani MHOM-ET-67/L82 axenic amastigotes assessed as growth inhibition at 4.8 ug/ml after 72 hrs by resazurin dye-based fluorometric analysis relative to control; type: functional; conditions: MHOM-ET-67/L82, 72 h, read-out: GI
[2] = tested on: Trypanosoma cruzi; assay: Antiparasitic activity against Trypanosoma cruzi Tulahuen C4 intracellular amastigotes infected in rat L6 cells assessed as growth inhibition at 0.8 ug/ml after 96 hrs by CPRG/Nonidet reagent based photometric analysis relative to control; type: functional; conditions: Tulahuen C4, L6, 96 h, read-out: GI
[3] = tested on: Plasmodium falciparum; assay: (§1) Antiparasitic activity against intraerythrocytic form of chloroquine/pyrimethamine-resistant Plasmodium falciparum K1 infected in human RBC assessed as growth inhibition at 4.8 ug/ml preincubated for 48 hrs followed by [3H]-hypoxanthine addition measured after 24 hrs by liquid scintillation counting analysis relative to control; type: functional; conditions: read-out: GI
[4] = tested on: Leishmania donovani; assay: Antiparasitic activity against Leishmania donovani MHOM-ET-67/L82 axenic amastigotes assessed as growth inhibition at 0.8 ug/ml after 72 hrs by resazurin dye-based fluorometric analysis relative to control; type: functional; conditions: MHOM-ET-67/L82, 72 h, read-out: GI
[5] = tested on: Plasmodium falciparum; assay: Antiparasitic activity against intraerythrocytic form of chloroquine/pyrimethamine-resistant Plasmodium falciparum K1 infected in human RBC preincubated for 48 hrs followed by [3H]-hypoxanthine addition measured after 24 hrs by liquid scintillation counting analysis; type: functional
[6] = tested on: Trypanosoma brucei rhodesiense; assay: Antiparasitic activity against Trypanosoma brucei rhodesiense STIB 900 trypomastigote bloodstream form assessed as growth inhibition at 0.8 ug/ml after 72 hrs by resazurin dye-based fluorometric analysis relative to control; type: functional; conditions: STIB 900, 72 h, read-out: GI
[7] = tested on: Trypanosoma cruzi; assay: Antiparasitic activity against Trypanosoma cruzi Tulahuen C4 intracellular amastigotes infected in rat L6 cells assessed as growth inhibition at 4.8 ug/ml after 96 hrs by CPRG/Nonidet reagent based photometric analysis relative to control; type: functional; conditions: Tulahuen C4, L6, 96 h, read-out: GI
[8] = tested on: Plasmodium falciparum; assay: as §1, with “0.8” for “4.8”; type: functional; conditions: read-out: GI
[9] = tested on: Trypanosoma brucei rhodesiense; assay: Antiparasitic activity against Trypanosoma brucei rhodesiense STIB 900 trypomastigote bloodstream form assessed as growth inhibition at 4.8 ug/ml after 72 hrs by resazurin dye-based fluorometric analysis relative to control; type: functional; conditions: STIB 900, 72 h, read-out: GI
[10] = Selectivity index, ratio of IC50 for rat L6 cells to IC50 for Trypanosoma cruzi Tulahuen C4 intracellular amastigotes infected in rat L6 cells; type: toxicity, cell-based; conditions: read-out: Ratio IC50
[11] = tested on: Trypanosoma cruzi; assay: Antiparasitic activity against Trypanosoma cruzi Tulahuen C4 intracellular amastigotes infected in rat L6 cells after 96 hrs by CPRG/Nonidet reagent based photometric analysis; type: functional, cell-based; conditions: Tulahuen C4, L6, 96 h
[12] = tested on: L6; assay: Cytotoxicity against rat L6 cells assessed as cell viability after 72 hrs by Alamar blue assay; type: cell-based; conditions: L6, 72 h

SMILES	inhibition of growth at 4.8 µg/mL [1]	inhibition of growth at 0.8 µg/mL [2]	inhibition of growth at 4.8 µg/mL [3]	inhibition of growth at 0.8 µg/mL [4]	Activity [5]	inhibition of growth at 0.8 µg/mL [6]	inhibition of growth at 4.8 µg/mL [7]	inhibition of growth at 0.8 µg/mL [8]	inhibition of growth at 4.8 µg/mL [9]	selectivity ratio [10]	IC50 [11]	IC50 [12]
O=[N+]([O-])c1ccc(S(=O)(=O)n2ccc3ccccc32)cc1	77.6%	18.3%	60.4%	24.2%	Active	8.6%	75%	2.5%	29.3%	–	–	–
O=[N+]([O-])c1cccc(S(=O)(=O)N2CCc3ccccc32)c1	95.4%	36.4%	79.2%	15.9%	–	0%	100%	14.7%	4.3%	14	1.08 µM	15.1 µM
COc1ccc(S(=O)(=O)N2c3ccccc3CC2C)cc1 (configuration not stated)	35%	1.8%	49.3%	2.9%	–	1.2%	100%	5.3%	4.4%	0.04	9.46 µM	0.44 µM
CC1Cc2ccccc2N1S(=O)(=O)c1ccc(Br)cc1 (configuration not stated)	81.4%	0%	76%	17.6%	–	0%	100%	9.1%	0.9%	2.29	5.76 µM	13.2 µM
O=[N+]([O-])c1ccc(S(=O)(=O)n2nnc3ccccc32)cc1	–	–	–	–	Active	–	–	–	–	–	–	–
O=S(=O)(c1ccccc1)n1nnc2ccccc21	–	–	–	–	Active	–	–	–	–	–	–	–
Cc1cc(C)c(C)c(S(=O)(=O)n2nnc3ccccc32)c1C	45.6%	0%	0.1%	28.4%	–	0.7%	2.9%	0%	4.7%	–	–	–
CC(=O)c1ccc(S(=O)(=O)N2CCc3ccccc3C2)cc1	46.1%	0%	9.7%	20.1%	–	0%	13.4%	0.3%	0%	–	–	–
O=S(=O)(c1ccc(Br)cc1)n1ccc2ccccc21	48.1%	0%	45.9%	11.5%	–	0%	0%	0%	0%	–	–	–
CC1Cc2ccccc2N1S(=O)(=O)c1ccccc1 (configuration not stated)	27.9%	0%	46.4%	12.5%	Active	4.6%	5.2%	13.2%	0%	–	–	–
O=S(=O)(c1ccccc1)N1CCc2ccccc21	45.3%	0%	29.1%	7.4%	Active	0%	10%	2.9%	0%	–	–	–
CC(=O)c1ccc(S(=O)(=O)n2nnc3ccccc32)cc1	41.6%	0%	5.6%	17.3%	–	2.8%	6.1%	0%	4.9%	–	–	–
CC(C)(C)c1ccc(S(=O)(=O)N2CCc3ccccc3C2)cc1	100%	0%	86%	31.6%	–	10.8%	26.7%	11.6%	8.7%	–	–	–
O=S(=O)(c1ccc(C(F)(F)F)cc1)N1CCCc2ccccc21	85%	0%	75.3%	20.1%	–	7.2%	22.6%	7.2%	18.1%	–	–	–
O=S(=O)(c1cccc(C(F)(F)F)c1)N1CCCc2ccccc21	73.1%	10.4%	68%	23.7%	–	2.4%	62.6%	6.6%	2.5%	–	–	–
O=S(=O)(c1ccc(C(F)(F)F)cc1)N1CCc2ccccc21	68.8%	3.4%	59.8%	12.6%	–	2.2%	10.8%	0%	0%	–	–	–
O=S(=O)(c1ccccc1)n1ccc2ccccc21	–	–	–	–	Active	–	–	–	–	–	–	–
O=[N+]([O-])c1ccccc1S(=O)(=O)N1CCc2ccccc2C1	57%	3.1%	19.8%	17.8%	–	10.8%	27.5%	0%	6.9%	–	–	–
O=S(=O)(c1ccc(Cl)cc1)N1CCc2ccccc21	73.6%	0%	63.7%	6.9%	–	0%	1.5%	3.7%	0%	–	–	–
CC(=O)c1ccc(S(=O)(=O)N2c3ccccc3CC2C)cc1 (configuration not stated)	26.8%	0%	46.3%	0%	–	0%	23.7%	7.3%	0.4%	–	–	–
Cc1ccc(S(=O)(=O)N2CCc3ccccc32)cc1	63.7%	0%	20%	8.1%	–	3.1%	14.4%	0%	0%	–	–	–
COc1ccc(S(=O)(=O)N2CCc3ccccc32)cc1	42.6%	12.1%	11.6%	18.6%	–	0%	27.4%	0%	0%	–	–	–
